Reference: publication PMC7216583 (Parasites & Vectors, 2020)
Read-outs that look alike come from different tables or passages of the source.

Legend:
[1] = system: NaV1.8 channel; design: method as in S-inhibitor catalog; details: vendor brief description; ref S-inhibitor catalog; cited from earlier work
[2] = system: Toxoplasma gondii RH-2F tachyzoites; experiment: microbe, parasite or virus in culture; details: 72 h
[3] = in vitro; details: human, Host viability (%) mean
[4] = biological target: human c-Met; design: method as in S-inhibitor catalog; details: vendor brief description; ref S-inhibitor catalog; cited from earlier work
[5] = biological target: mouse c-Met; design: method as in S-inhibitor catalog; details: vendor brief description; ref S-inhibitor catalog; cited from earlier work
[6] = system: NAMPT; details: read-out: IC50, NAMPT; vendor brief description; ref S-inhibitor catalog; cited from earlier work
[7] = biological target: XIAP; design: method as in S-inhibitor catalog; details: vendor brief description; ref S-inhibitor catalog; cited from earlier work
[8] = biological target: cIAP1; design: method as in S-inhibitor catalog; details: vendor brief description; ref S-inhibitor catalog; cited from earlier work
[9] = biological target: cIAP2; design: method as in S-inhibitor catalog; details: vendor brief description; ref S-inhibitor catalog; cited from earlier work
[10] = system: wild-type CRAF; design: method as in S-inhibitor catalog; details: vendor brief description; ref S-inhibitor catalog; cited from earlier work
[11] = system: BRAFV600E; design: method as in S-inhibitor catalog; details: vendor brief description; ref S-inhibitor catalog; cited from earlier work
[12] = system: mutant CETP(C13S); design: method as in S-inhibitor catalog; details: vendor brief description; ref S-inhibitor catalog; cited from earlier work
[13] = system: GSK-3ɑ; details: read-out: IC50, GSK-3ɑ; vendor brief description; ref S-inhibitor catalog; cited from earlier work
[14] = system: GSK-3β; details: read-out: IC50, GSK-3β; vendor brief description; ref S-inhibitor catalog; cited from earlier work
[15] = system: CHO-hSGLT2; design: method as in S-inhibitor catalog; details: vendor brief description; ref S-inhibitor catalog; cited from earlier work
[16] = system: CHO-rSGLT2; design: method as in S-inhibitor catalog; details: vendor brief description; ref S-inhibitor catalog; cited from earlier work
[17] = system: CHO-mSGLT2; design: method as in S-inhibitor catalog; details: vendor brief description; ref S-inhibitor catalog; cited from earlier work
[18] = system: PDGFRα; design: method as in S-inhibitor catalog; details: in PDGFRα over-expressed CHO cells; vendor brief description; ref S-inhibitor catalog; cited from earlier work
[19] = system: B-Raf; design: method as in vendor brief description; details: ref vendor brief description; cited from earlier work
[20] = system: B-RafV600E; design: method as in vendor brief description; details: ref vendor brief description; cited from earlier work
[21] = system: c-Raf; design: method as in vendor brief description; details: ref vendor brief description; cited from earlier work
[22] = system: rhCETP; design: method as in S-inhibitor catalog; details: vendor brief description; ref S-inhibitor catalog; cited from earlier work
[23] = biological target: FPTase (H-ras); design: method as in S-inhibitor catalog; details: vendor brief description; ref S-inhibitor catalog; cited from earlier work
[24] = biological target: FPTase (K-ras-4B); design: method as in S-inhibitor catalog; details: vendor brief description; ref S-inhibitor catalog; cited from earlier work
[25] = biological target: FPTase (N-ras); design: method as in S-inhibitor catalog; details: vendor brief description; ref S-inhibitor catalog; cited from earlier work
[26] = biological target: integrase (IN); design: method as in S-inhibitor catalog; details: vendor brief description; ref S-inhibitor catalog; cited from earlier work
[27] = system: INR263K; design: method as in S-inhibitor catalog; details: vendor brief description; ref S-inhibitor catalog; cited from earlier work
[28] = system: PDGFRβ; design: method as in S-inhibitor catalog; details: vendor brief description; ref S-inhibitor catalog; cited from earlier work
[29] = system: Flt3; design: method as in S-inhibitor catalog; details: vendor brief description; ref S-inhibitor catalog; cited from earlier work
[30] = system: c-Met; design: method as in S-inhibitor catalog; details: vendor brief description; ref S-inhibitor catalog; cited from earlier work
[31] = system: Ron; design: method as in S-inhibitor catalog; details: vendor brief description; ref S-inhibitor catalog; cited from earlier work
[32] = system: Flt1; design: method as in S-inhibitor catalog; details: vendor brief description; ref S-inhibitor catalog; cited from earlier work
[33] = system: Mer; design: method as in S-inhibitor catalog; details: vendor brief description; ref S-inhibitor catalog; cited from earlier work
[34] = system: FGFR2; design: method as in S-inhibitor catalog; details: vendor brief description; ref S-inhibitor catalog; cited from earlier work
[35] = system: FGFR3; design: method as in S-inhibitor catalog; details: vendor brief description; ref S-inhibitor catalog; cited from earlier work
[36] = system: FGFR1; details: read-out: IC50, FGFR1; vendor brief description; ref S-inhibitor catalog; cited from earlier work
[37] = system: cyclin A/CDK2; design: method as in S-inhibitor catalog; details: vendor brief description; ref S-inhibitor catalog; cited from earlier work
[38] = system: PI3K/mTOR; design: method as in S-inhibitor catalog; details: vendor brief description; ref S-inhibitor catalog; read-out: IC50, dual PI3K/mTOR inhibitor; cited from earlier work
[39] = system: Akt phosphorylation on T308; design: method as in S-inhibitor catalog; details: vendor brief description; ref S-inhibitor catalog; cited from earlier work
[40] = system: Akt phosphorylation on S473; design: method as in S-inhibitor catalog; details: vendor brief description; ref S-inhibitor catalog; cited from earlier work
[41] = system: CDK9; design: method as in S-inhibitor catalog; details: vendor brief description; ref S-inhibitor catalog; cited from earlier work
[42] = system: Cdc7; design: method as in S-inhibitor catalog; details: vendor brief description; ref S-inhibitor catalog; cited from earlier work
[43] = system: HDAC2; design: method as in S-inhibitor catalog; details: vendor brief description; ref S-inhibitor catalog; cited from earlier work
[44] = system: mTOR; design: method as in S-inhibitor catalog; details: vendor brief description; ref S-inhibitor catalog; cited from earlier work
[45] = system: PI3Kα; design: method as in S-inhibitor catalog; details: vendor brief description; ref S-inhibitor catalog; cited from earlier work
[46] = system: PI3Kβ; design: method as in S-inhibitor catalog; details: vendor brief description; ref S-inhibitor catalog; cited from earlier work
[47] = biological target: PKCθ; design: method as in S-inhibitor catalog; details: vendor brief description; ref S-inhibitor catalog; cited from earlier work
[48] = system: HER2; details: vendor brief description; ref S-inhibitor catalog; cited from earlier work
[49] = system: EGFR; design: method as in S-inhibitor catalog; details: vendor brief description; ref S-inhibitor catalog; cited from earlier work
[50] = system: CETP; design: method as in S-inhibitor catalog; details: vendor brief description; ref S-inhibitor catalog; cited from earlier work
[51] = system: mGlu5; design: method as in S-inhibitor catalog; details: vendor brief description; ref S-inhibitor catalog; read-out: EC50, mGlu5 allosteric modulator; cited from earlier work
[52] = system: JAK2; design: method as in S-inhibitor catalog; details: in HEL cells; vendor brief description; ref S-inhibitor catalog; cited from earlier work
[53] = system: Stat3; design: method as in S-inhibitor catalog; details: in HEL cells; vendor brief description; ref S-inhibitor catalog; cited from earlier work
[54] = system: Toxoplasma gondii RH-2F tachyzoites; details: preliminary screen of compound library; mean
[55] = system: Mps1; design: method as in S-inhibitor catalog; details: vendor brief description; ref S-inhibitor catalog; cited from earlier work
[56] = read-out: Parasite inhibition (%) mean, preliminary screen of compound library, mean
[57] = read-out: Parasite inhibition (%) mean

## COc1cc(NC(=O)c2ccc(-c3ccc(Cl)cc3)o2)cc(OC)c1 [A-803467]
[1]
  IC50: 8 nM
[2]; [56]
  inhibition of growth at 5 µM: 0.3%

## COc1ccc2c(Oc3ccc(NC(=O)c4c(C)n(CC(C)(C)O)n(-c5ccccc5)c4=O)nc3)ccnc2c1 [AMG458]
[3]
  viability at 72 h: 75.9%
[4]
  Ki: 1.2 nM
[5]
  Ki: 2 nM
[2]; [56]
  inhibition of growth at 5 µM: 86.6%

## O=C(/C=C/c1cccnc1)NCCCCC1CCN(C(=O)c2ccccc2)CC1 [APO866 (FK866)]
[6]
  IC50: […]
[2]; [56]
  inhibition of growth at 5 µM: 10.4%

## CN[C@@H](C)C(=O)N[C@H]1CN(C(=O)CC(C)C)CC[C@H]2CC[C@@H](C(=O)NC(c3ccccc3)c3ccccc3)N2C1=O [AT-406]
[7]
  Ki: 66.4 nM
[8]
  Ki: 1.9 nM
[9]
  Ki: 5.1 nM
[2]; [56]
  inhibition of growth at 5 µM: 33.5%

## Cc1ccc(NC(=O)c2cccc(C(C)(C)C#N)c2)cc1Nc1ccc2ncn(C)c(=O)c2c1 [AZ628]
[10]
  IC50: 29 nM
[11]
  IC50: 34 nM
[2]; [56]
  inhibition of growth at 5 µM: 0.6%

## COc1cc(F)c(C(C)C)cc1-c1ccc(C(F)(F)F)cc1CN1C(=O)O[C@H](c2cc(C(F)(F)F)cc(C(F)(F)F)c2)[C@H]1C [Anacetrapib (MK-0859)]
[12]
  IC50: 11.8 nM
[2]; [56]
  inhibition of growth at 5 µM: 22.1%

## Nc1nc(NCCNc2ncc(-n3ccnc3)c(-c3ccc(Cl)cc3Cl)n2)ccc1[N+](=O)[O-] [CHIR-98014]
[13]
  IC50: 0.65 nM
[14]
  IC50: 0.58 nM
[2]; [57]
  inhibition of growth at 5 µM: 52.4%

## Cc1ccc([C@@H]2O[C@H](CO)[C@@H](O)[C@H](O)[C@H]2O)cc1Cc1ccc(-c2ccc(F)cc2)s1 [Canagliflozin]
[15]
  IC50: 4.4 nM
[16]
  IC50: 3.7 nM
[17]
  IC50: 2 nM
[2]; [56]
  inhibition of growth at 5 µM: 0.5%

## CC1(COc2ccc3c(c2)ncn3-c2ccc3cccc(N4CCC(N)CC4)c3n2)COC1 [Crenolanib (CP-868596)]
[18]
  IC50: […]
[2]; [56]
  inhibition of growth at 5 µM: 0.2%

## CC(C)(C)c1nc(-c2cccc(NS(=O)(=O)c3c(F)cccc3F)c2F)c(-c2ccnc(N)n2)s1 [Dabrafenib (GSK2118436)]
[19]
  IC50: […]
[20]
  IC50: […]
[21]
  IC50: 5 nM
[2]; [56]
  inhibition of growth at 5 µM: 0.8%

## CCC(CC)CC1(C(=O)Nc2ccccc2SC(=O)C(C)C)CCCCC1 [Dalcetrapib (JTT-705)]
[22]
  IC50: 200 nM
[2]; [56]
  inhibition of growth at 5 µM: 0.4%

## NC(=O)N1CCC(CC(=O)N2CCC([C@H]3c4ncc(Br)cc4CCc4cc(Cl)cc(Br)c43)CC2)CC1 [Lonafarnib (SCH66336)]
[23]
  IC50: 1.9 nM
[24]
  IC50: 5.2 nM
[25]
  IC50: 2.8 nM
[2]; [56]
  inhibition of growth at 5 µM: 0.4%

## CCN1C[C@@H](C)n2c(c(O)c3c(=O)n(Cc4ccc(F)c(Cl)c4)nc(C(=O)NC)c32)C1=O [MK-2048]
[26]
  IC50: 2.6 nM
[27]
  IC50: 1.5 nM
[2]; [56]
  inhibition of growth at 5 µM: 1%

## CN(C[C@@H]1COCCO1)S(=O)(=O)Nc1ccc2ccc3ncc(-c4cnn(C)c4)cc3c(=O)c2c1 [MK-2461]
[3]
  viability at 72 h: 60.3%
[28]
  IC50: 22 nM
[29]
  IC50: 22 nM
[30]
  IC50: 2.5 nM
[31]
  IC50: 7 nM
[32]
  IC50: 10 nM
[33]
  IC50: 24 nM
[34]
  IC50: 39 nM
[35]
  IC50: 50 nM
[36]
  IC50: 65 nM
[2]; [56]
  inhibition of growth at 5 µM: 79.8%

## CNC(=O)c1nn(C)c2c1C(C)(C)Cc1cnc(Nc3ccc(N4CCN(C)CC4)cc3)nc1-2 [Milciclib (PHA-848125)]
[37]
  IC50: 45 nM
[2]; [56]
  inhibition of growth at 5 µM: 16.4%

## COc1ccc(-c2ccc3ncc4c(c3c2)n(-c2ccc(N3CCNCC3)c(C(F)(F)F)c2)c(=O)n4C)cn1 [NVP-BGT226]
[38]
  IC50: 1 nM
[2]; [56]
  inhibition of growth at 5 µM: 6.1%

## COc1ccc(-c2cc3c(C)nc(N)nc3n([C@H]3CC[C@H](OCCO)CC3)c2=O)cn1 [PF-04691502]
[39]
  IC50: 7.5 nM
[40]
  IC50: 3.8 nM
[2]; [56]
  inhibition of growth at 5 µM: 11.5%

## O=C1NCCc2[nH]c(-c3ccncc3)cc21 [PHA-767491]
[41]
  IC50: […]
[42]
  IC50: […]
[2]; [57]
  inhibition of growth at 5 µM: 2.1%

## COc1ccc(-c2nc(N3CCOCC3)c3sc(CN(C)c4ncc(C(=O)NO)cn4)cc3n2)cn1 [PI3K/HDAC Inhibitor I]
[3]
  viability at 72 h: 72.1%
[43]
  IC50: 5 nM
[2]; [56]
  inhibition of growth at 5 µM: 78.4%

## CCn1nnc2c(N3CCOCC3)nc(-c3ccc(NC(=O)Nc4ccc(C(=O)N5CCN(C)CC5)cc4)cc3)nc21 [PKI-402]
[44]
  IC50: 3 nM
[45]
  IC50: 2 nM
[46]
  IC50: […]
[2]; [56]
  inhibition of growth at 5 µM: 36.9%

## CN1CCN(c2nc(C3=C(c4c[nH]c5ccccc45)C(=O)NC3=O)c3ccccc3n2)CC1 [Sotrastaurin (AEB071)]
[47]
  Ki: 0.22 nM
[2]; [56]
  inhibition of growth at 5 µM: 40.4%

## CC(C)(O)CC(=O)NCCn1ccc2ncnc(Nc3ccc(Oc4cccc(C(F)(F)F)c4)c(Cl)c3)c21 [TAK-285]
[48]
  IC50: 17 nM
[49]
  IC50: […]
[2]; [56]
  inhibition of growth at 5 µM: -12.2%

## CCOC(=O)N1c2ccc(C(F)(F)F)cc2[C@H](N(Cc2cc(C(F)(F)F)cc(C(F)(F)F)c2)C(=O)OC)C[C@H]1CC [Torcetrapib (CP-529414)]
[50]
  IC50: 37 nM
[2]; [56]
  inhibition of growth at 5 µM: 22.1%

## CCCCOc1ccc(C(=O)Nc2ccc(F)cc2F)cc1 [VU 0357121]
[51]
  EC50: 33 nM
[2]; [56]
  inhibition of growth at 5 µM: 0.1%

## C[C@H](NC(=O)/C(C#N)=C/c1cccc(Br)n1)c1ccccc1 [WP1066]
[52]
  IC50: 2300 nM
[53]
  IC50: 2430 nM
[2]; [56]
  inhibition of growth at 5 µM: -8.7%

## AZ 3146
[54]
  Parasite inhibition (%) mean: 3.4%
[55]
  IC50: ~35 nM
